Where two headings read alike, the source gives them in different places.
What was measured:
CYP3A4 = CYP3A4 (Homo sapiens, UniProt P08684); assay: CYP3A4 inhibition, method not given; format: biochemical
choline transporter = biological target: T1, choline transporter (Homo sapiens, UniProt Q9GZV3); assay: biochemical
T1 sequence (Q9GZV3 1-580): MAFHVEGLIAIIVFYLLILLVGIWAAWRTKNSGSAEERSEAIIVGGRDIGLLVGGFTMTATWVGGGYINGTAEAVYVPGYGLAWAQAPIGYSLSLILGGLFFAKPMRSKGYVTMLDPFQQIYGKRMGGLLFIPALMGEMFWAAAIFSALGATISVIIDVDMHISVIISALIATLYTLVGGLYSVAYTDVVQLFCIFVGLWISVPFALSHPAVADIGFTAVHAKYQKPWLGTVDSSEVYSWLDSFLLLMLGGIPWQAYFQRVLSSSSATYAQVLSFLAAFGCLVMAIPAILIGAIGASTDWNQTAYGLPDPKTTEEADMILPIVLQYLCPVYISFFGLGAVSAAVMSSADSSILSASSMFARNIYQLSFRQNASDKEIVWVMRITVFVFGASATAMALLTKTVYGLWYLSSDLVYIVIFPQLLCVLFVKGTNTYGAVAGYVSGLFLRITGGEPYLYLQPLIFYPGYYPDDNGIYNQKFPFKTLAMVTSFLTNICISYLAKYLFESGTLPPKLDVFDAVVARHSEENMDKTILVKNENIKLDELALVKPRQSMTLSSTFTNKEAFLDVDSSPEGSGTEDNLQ

D1 = D1 (Homo sapiens, UniProt P21728); assay: biochemical
[1] = read-out: XEN601 % inhibition at 1 µM
[2] = read-out: XEN602 % inhibition at 1 µM

Chain of D1 (P21728 whole entry): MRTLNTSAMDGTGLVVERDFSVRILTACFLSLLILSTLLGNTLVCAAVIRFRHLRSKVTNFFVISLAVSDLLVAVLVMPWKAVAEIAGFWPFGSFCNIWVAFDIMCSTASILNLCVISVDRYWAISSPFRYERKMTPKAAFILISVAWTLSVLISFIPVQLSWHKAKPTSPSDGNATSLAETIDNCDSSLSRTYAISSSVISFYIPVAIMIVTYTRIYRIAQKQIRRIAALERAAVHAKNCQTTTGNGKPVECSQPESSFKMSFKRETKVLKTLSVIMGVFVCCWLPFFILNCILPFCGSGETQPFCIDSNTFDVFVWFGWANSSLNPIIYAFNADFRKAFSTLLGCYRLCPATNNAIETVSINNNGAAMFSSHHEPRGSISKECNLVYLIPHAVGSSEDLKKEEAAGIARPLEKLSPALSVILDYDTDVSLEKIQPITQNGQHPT
Chain of CYP3A4 (P08684 2-503): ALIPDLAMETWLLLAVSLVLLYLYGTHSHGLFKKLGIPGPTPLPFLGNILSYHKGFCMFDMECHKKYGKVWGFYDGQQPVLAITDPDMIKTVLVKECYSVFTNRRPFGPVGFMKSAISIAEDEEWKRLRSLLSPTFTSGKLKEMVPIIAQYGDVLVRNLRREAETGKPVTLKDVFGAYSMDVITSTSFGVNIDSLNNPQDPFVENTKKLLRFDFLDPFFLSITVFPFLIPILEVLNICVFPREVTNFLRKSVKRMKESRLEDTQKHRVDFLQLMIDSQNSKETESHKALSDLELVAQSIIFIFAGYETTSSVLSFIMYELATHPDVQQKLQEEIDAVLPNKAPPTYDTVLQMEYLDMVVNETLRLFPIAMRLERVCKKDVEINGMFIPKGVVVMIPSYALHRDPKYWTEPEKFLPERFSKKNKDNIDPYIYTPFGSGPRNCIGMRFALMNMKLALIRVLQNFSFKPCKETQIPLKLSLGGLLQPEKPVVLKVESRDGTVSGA

| SMILES | IC50 (CYP3A4) [nM] | inhibition at 1 µM (choline transporter; [1]) [%] | inhibition at 1 µM (D1; [1]) [%] | inhibition at 1 µM (choline transporter; [2]) [%] | inhibition at 1 µM (D1; [2]) [%] |
| --- | --- | --- | --- | --- | --- |
| N=C(N)SCc1ccccc1Oc1ccc(-c2ccc(Oc3ccccc3CSC(=N)N)c(CSC(=N)N)c2)cc1CSC(=N)N [compound 5, XEN601] | < 1000 | 62 | 69 | – | – |
| N=C(N)SCc1cc(F)ccc1Oc1ccc(-c2ccc(Oc3ccc(CCCN4CCNCC4)cc3CSC(=N)N)c(CSC(=N)N)c2)cc1CSC(=N)N [compound 6, XEN602] | – | – | – | 52 | 59 |
